Test results published in patent US20230303623A1, “PEPTIDES AND METHODS OF USE” (REALTA LIFE SCIENCES, INC., priority 2020, published 2023).

Assays:
[1] = tested on: antibody-initiated complement activation (lysis of AB human red blood cells by type O serum); test: ABO incompatibility hemolytic complement assay (CH50-type); type: cell-based; conditions: peptides 0.8 mg/ml (~0.5 mM), compared to parent peptide
Experimental: FIG. 1A-1B show PIC1 peptides' inhibition of complement activation in an ABO incompatibility assay. […] Inhibition of ABO incompatibility hemolysis in a CH50-type assay. Peptides are at a final concentration of 0.5 mM. Values are represented as a percent of the positive control, which consists of human 0 sera and AB red blood cells in GVBS^++ buffer. Data are the means of n=3 independent experiments±SEM.
For hemolytic complement assays, human red blood cells (RBCs) from type AB donors were purified, washed, and standardized to 1.0×10^9 cells/ml, as previously described. Human sera from type 0 donors at a 15% final concentration was combined with 0.5 mM of the peptides and the volume was brought up to 0.2 ml with GVBS^++ and 5.0×10^7 RBCs. The samples were incubated for 1 hour at 37° C. and then spun at 3,000 rpm for 5 minutes and the supernatant was collected and read at 412 nm. Values are represented as a percent of the positive control, which consists of human 0 sera and AB red blood cells in GVBS^++ buffer.
To assess the extent to which the peptide variants inhibit antibody-initiated complement activation, an ABO incompatibility ex vivo assay was utilized in which purified erythrocytes from a ‘type AB+’ donor are incubated with sera from a ‘type 0’ subject containing anti-A and anti-B antibodies. Peptides were tested at a concentration of 0.8 mg/ml (˜0.5 mM).

C1q = target: T1, C1q (Homo sapiens, UniProt P02745+P02746+P02747); test: C1q binding ELISA-type assay; conditions: compared to parent peptide
T1 construct: purchased Complement Technology (Tyler, TX)
Experimental: The C1q binding assay was performed as previously described. Briefly, an Immunlon-2 HB ELISA plate was coated with 1 μg/ml C1q in bicarbonate buffer overnight at 4° C. The plates were washed with PBS-T (phosphate buffered saline+0.1% Tween) and then blocked with 1% gelatin/PBS for 2 hours at room temperature. After washing, the plates were incubated with the peptides starting at 2.5 mg/ml and then serially diluted in 1% gelatin/PBS for 1 hour at room temperature followed by washing. Plates were then probed with rabbit antibody raised against the lead peptide […] (SEQ ID NO: 2) that lacked PEGylation at 1:1000 in 1% gelatin/PBS for 1 hour at room temperature followed by a goat anti-rabbit HRP (Sigma Aldrich, St Louis, MO) at 1:1,000 in 1% gelatin/PBS for 1 hour at room temperature with a washing step in between. After addition of TMB substrate solution to the wells, the reaction was stopped using 1N H2SO4, and the plate read on a BioTek Synergy HT plate reader at 450 nm.
The astrovirus capsid protein and the PIC1 molecules derived from it inhibit classical complement pathway activation by binding to the pattern recognition molecule C1q. The inventors next tested peptide variant binding to C1q in an ELISA-type assay in which C1q is used as the capture substrate and bound peptide detected with a rabbit polyclonal antibody against the peptide portion of PA-dPEG24 ([…]-d24; SEQ ID NO: 3). Binding curves were derived for the stapled and D-amino acid peptides based on the PA-I8Sar and PA-C9Sar (FIG. 5A-5C) backbone, from which half-maximal binding concentrations were calculated (FIGS. 2A and B, respectively). […] For the peptides based on the PA-C9Sar backbone, C1q was bound to a greater degree than the parent peptide (FIG. 2B).

[2] = Total Antioxidant Capacity (TAC) assay; conditions: highest peptide concentration 1.5 mM; compared to parent peptide
Method in brief: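 Copper(II)-to-copper(I) reduction kit used per manufacturer to measure antioxidant capacity of PIC1 peptide variants over a concentration range; activity reported at the highest peptide concentration, 1.5 mM.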

VEGF = target: T2, VEGF (Homo sapiens, UniProt P15692); test: VEGF Bioassay (Promega), VEGF signaling via VEGFR-2 (KDR); type: cell-based
T2 construct: Promega (bioassay)
T2 sequence (P15692 27-191 isoform P15692-4): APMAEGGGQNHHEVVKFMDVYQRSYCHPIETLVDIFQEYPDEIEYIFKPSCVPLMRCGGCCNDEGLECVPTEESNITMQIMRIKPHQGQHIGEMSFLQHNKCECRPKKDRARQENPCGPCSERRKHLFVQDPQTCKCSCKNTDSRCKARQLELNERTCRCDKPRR
Text: Luminescence was detected in luminometer plate reader.
Angiogenesis, or the formation of new blood vessels from the established vasculature, is an essential element in tumor growth and metastasis formation. Inhibiting tumor angiogenesis is considered a major therapeutic strategy in oncology. […] The bioluminescent signal is detected in a luminometer.

T1 sequence (P02745 23-245): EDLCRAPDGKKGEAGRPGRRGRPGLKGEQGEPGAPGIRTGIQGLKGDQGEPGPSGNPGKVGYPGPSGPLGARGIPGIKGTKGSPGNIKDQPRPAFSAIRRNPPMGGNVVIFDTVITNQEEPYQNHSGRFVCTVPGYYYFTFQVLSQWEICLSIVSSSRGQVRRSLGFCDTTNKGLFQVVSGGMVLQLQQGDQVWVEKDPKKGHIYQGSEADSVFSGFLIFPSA
T1 sequence (P02746 28-253): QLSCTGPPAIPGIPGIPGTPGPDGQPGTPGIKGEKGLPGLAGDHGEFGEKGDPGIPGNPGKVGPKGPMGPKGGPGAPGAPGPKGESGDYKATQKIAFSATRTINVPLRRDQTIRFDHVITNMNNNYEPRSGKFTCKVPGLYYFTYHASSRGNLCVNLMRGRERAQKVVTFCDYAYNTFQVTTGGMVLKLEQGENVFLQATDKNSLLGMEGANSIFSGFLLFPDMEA
T1 sequence (P02747 29-245): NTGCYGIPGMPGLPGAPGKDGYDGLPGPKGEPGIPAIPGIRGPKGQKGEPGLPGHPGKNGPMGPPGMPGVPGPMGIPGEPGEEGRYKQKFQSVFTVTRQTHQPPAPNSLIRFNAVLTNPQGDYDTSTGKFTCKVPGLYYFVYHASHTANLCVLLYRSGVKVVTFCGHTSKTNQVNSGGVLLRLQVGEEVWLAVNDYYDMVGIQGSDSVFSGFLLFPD

Substance: IAdLILEP(Sar)CCQERAA (IALILEPXCCQERAA; D-Leu; sarcosine; MOD_RES (3)..(3) D-amino acid; MOD_RES (8)..(8) Sarcosine) [PA-0122]
- inhibition of ABO incompatible hemolysis (complement inhibition), in words [1]: greater extent
- inhibition of ABO incompatible hemolysis (complement inhibition), in words ([1]; listed as RLS-0122): potently block complement activation
- binding to C1q (binding curves, half-maximal binding), in words (C1q): markedly increased binding to C1q
- total antioxidant capacity, in words [2]: slight increase in total antioxidant capacity
- inhibition of VEGF signaling via VEGFR-2 (luminescence), in words (VEGF): did not inhibit signaling
